Here are results for four compounds from PMC5402990 (PLoS Neglected Tropical Diseases, 2017).

Data set [1] deals with cholesterol levels in endolysosomes of BSC-1 cells. The format is cell-based, Grivet monkey.
A short description of data set [2]: in vitro. The conditions noted are these: human.
Another data set has as its system EBOV trVLPs. In kind it is cell-based, Ebola virus.
The nature of another data set: in vivo. The conditions noted are these: mouse, ip, 10 mg/kg.
Data set [3] concerns EBOV VLP trafficking in BSC-1 cells. The format is cell-based, Grivet monkey.
For data set [4] the following is noted: human, in vivo; cited from earlier work.
A further data set concerns EBOV/Mak. In words: microbe, parasite or virus in culture. In kind it is cell-based, Ebola virus. Conditions: for IC50: Zaire ebolavirus.
The subject of the next data set is cathepsin B and L. In kind it is cell-based, Grivet monkey. Conditions: pH 5.
Data set [5] has as its system endosome acidification in BSC-1 cells. In kind it is cell-based, Grivet monkey.
In another data set the test system is EBOV GP VLPs. The format is cell-based, Ebola virus.
Data set [6] in a line: in vitro. The conditions noted are these: African green monkey.
A short description of data set [7]: in vitro. Conditions: human. The source holds these as a separate data set.
For data set [8] the following is noted: mouse, in vivo.
The test system of a further data set is Huh 7 cells. The conditions noted are these: human.
A further data set has as its system MARV. In words: organism not typed. In kind it is cell-based, Marburg virus.

A word on the Cmax: it is the highest concentration seen after dosing. What is called IC50 is the concentration needed to halve the response being measured.

Each structure is given as a SMILES string. Counter-ions that a name gives are not always drawn. Like-named read-outs stand apart in the source and are kept apart here.

`Cc1cccc(/C=N/Nc2cc(N3CCOCC3)nc(OCCc3ccccn3)n2)c1` [Apilimod, apilimod]: the “cholesterol levels in endolysosomes” value in data set [1] was “did not cause a detectable increase”. Further, the CC50 in “in vitro [2]” was more than 2000 nM; in “in vitro [6]” it was more than 2000 nM; in “in vitro [7]”, 480 ± 80 nM; with Huh 7 cells, 500 ± 100 nM. For the same compound, the “EBOV particle replication (trVLP infection)” value with EBOV trVLPs is “blocked”. Also, the concentration in “in vivo” peaked (Cmax) at 2530 nM. Further, the “EBOV VLP trafficking to NPC1+ endolysosomes (Manders colocalization)” value in data set [3] is “blocked EBOV VLP trafficking to NPC1^+ endolysosomes to a similar extent as nocodazole”. Further, the “VLP colocalization with EEA1+ endosomes” value in [3] was “caused EBOV VLPs to accumulate in EEA1^+ endosomes”. Moreover, the “VLP colocalization with NPC1 over time course” value in [3] is recorded as “at no point during this time course were VLPs seen to associate with NPC1^+ endolysosomes”. Moreover, the tolerability in humans entry in data set [4] was “well-tolerated”. Further, the “fold higher activity than the positive control, toremifene citrate” value with EBOV/Mak is listed as 6- to 247 fold. In addition, the “fold less potent in Huh 7 cells” value with EBOV/Mak is reported as ~ 10 fold. The IC50 with EBOV/Mak is 10 nM; with EBOV/Mak (48 h), 9 ± 1 nM; in the data set with EBOV/Mak (Huh-7), 140 nM; with EBOV/Mak (Huh-7, 48 h), 136 ± 40 nM; in the data set with EBOV/Mak (Vero C1008) it was 15 to 25 nM; in the data set on EBOV/Mak (Vero C1008, 48 h), 25 ± 10 nM. Besides, the IC50 in the data set on MARV is 10 nM; with MARV (48 h), 10 ± 4 nM; in the data set with MARV (Huh-7, 48 h) it was 140 ± 50 nM; with MARV (Vero C1008) it was 15 to 25 nM; in the data set on MARV (Vero C1008, 48 h) it was 15 ± 3 nM. Besides, the “effect on the activity of cathepsin B and L” value in the data set with cathepsin B and L was “no apparent direct effect”. The “effect on endosome acidification” value in data set [5] is recorded as “no detectable effect on endosome acidification”. The “EBOV VLP entry” value in the data set with EBOV GP VLPs was “blocks EBOV VLP entry into BSC-1 cells with the same approximate dose-dependency as its effects in HEK 293T/17 cells”. In addition, the “EBOV particle (VLP) entry” value with EBOV GP VLPs is on record as “blocked”. Also, the “Cmax relative to IC50 in hMDMs” value in [8] is listed as ~ 250 times. The “fold higher activity than the positive control” value in the data set on MARV is reported as 38- to 1160 fold.

As for `CO/C1=C\C(C)=C\[C@@H](C)[C@@H](O)[C@@H](C)C/C(C)=C/C=C/[C@H](OC)[C@@H]([C@@H](C)[C@@H](O)[C@H](C)[C@@]2(O)C[C@@H](O)[C@H](C)[C@@H](C(C)C)O2)OC1=O` [Bafilomycin], the “effect on endosome acidification” value in data set [5] is recorded as “blocks endosome acidification”.

Turning to `CN(C)CCOc1ccc(/C(=C(/CCCl)c2ccccc2)c2ccccc2)cc1` [Toremifene citrate], the IC50 was determined as 2470 nM with EBOV/Mak; 730 nM in the data set with EBOV/Mak (Huh-7); 1670 nM in the data set with EBOV/Mak (Vero C1008); 11600 nM in the data set with MARV; 5380 nM in the data set with MARV (Huh-7); 2360 nM in the data set with MARV (Vero C1008).

As to `COC(=O)Nc1nc2ccc(C(=O)c3cccs3)cc2[nH]1` [nocodazole, Nocodazole], in [3], the “EBOV VLP trafficking to NPC1+ endolysosomes (Manders colocalization)” value is on record as “blocked EBOV VLP trafficking to NPC1^+ endolysosomes to a similar extent as nocodazole”.
